# Patent US10604489B2, “Compounds for the treatment of pain” (priority 2018, dated 2020)
# pEC50, pKi: −log10 of the molar value. Where a name gives a salt, the structure may show the parent alone.
# Experiments:
# [1] = target: μ-receptor (Homo sapiens (Human), UniProt P35372); experiment: Receptor binding, competitive displacement of [3H]DAMGO; settings: 0.25 nM [3H]DAMGO, CHO cell membrane protein, 60 min at 25° C.
# Method: The Ki (binding affinity) for μ-receptor was determined with a previously described method using a competitive displacement assay (Neumeyer et al., J. Med. Chem., v. 46, p. 5162-5170, 2003). Membrane protein from CHO (Chinese Hamster Ovarian) cells that stably expressed one type of the cloned human opioid receptor were incubated with 12 different concentrations of the compound in the presence of 0.25 nM [3H]DAMGO, 0.2 nM [3H]naltrindole or 1 nM [3H]U69,593 in a final volume of 1 mL of 50 mM Tris-HCl, pH 7.5 at 25° C. Incubation times of 60 min were used for [3H]DAMGO and [3H]U69,593. Because of a slower association of [3H]naltrindole with the receptor, a 3 h incubation was used with this radioligand. Samples incubated with [3H]naltrindole also contained 10 mM MgCl2 and 0.5 mM phenylmethylsulfonyl fluoride. Nonspecific binding was measured by inclusion of 10 μM naloxone. The binding was terminated by filtering the samples through Schleicher & Schuell No. 32 glass fiber filters using a Brandel 48-well cell harvester. The filters were subsequently washed three times with 3 mL of cold 50 mM Tris-HCl, pH 7.5, and were counted in 2 mL Ecoscint A scintillation fluid. For [3H]naltrindole and [3H]U69,593 binding, the filters were soaked in 0.1% polyethylenimine for at least 60 min before use. IC50 values will be calculated by least squares fit to a logarithm-probit analysis. Ki values of unlabelled compounds were calculated from the equation Ki=(IC50)/1+S where S=(concentration of radioligand)/(Kd of radioligand) (Cheng and Prusoff, Biochemical Pharmacology, v. 22, p. 3099-3108, 1973).
# [2] = target: human μ opioid receptor (Homo sapiens (Human), UniProt P35372); experiment: Functional activity ([35S]GTPγS binding); format: biochemical; settings: [35S]GTPγS 0.080 nM, CHO cell membranes, 60 min at 30° C., filtration
# Method: The [^35S]GTPγS assay measures the functional properties of a compound by quantifying the level of G-protein activation following agonist binding in studies using stably transfected cells, and is considered to be a measure of the efficacy of a compound. Membranes from CHO (Chinese Hamster Ovary) cells that stably expressed one type of the cloned human opioid receptor human were used in the experiments. In a final volume of 0.5 mL, 12 different concentrations of each test compound were incubated with 7.5 μg of CHO cell membranes that stably expressed the human p opioid receptor. The assay buffer consisted of 50 mM Tris-HCl, pH 7.4, 3 mM MgCl2, 0.2 mM EGTA, 3 μM GDP, and 100 mM NaCl. The final concentration of [35S]GTPγS was 0.080 nM. Nonspecific binding was measured by inclusion of 10 μM GTPγS. Binding was initiated by the addition of the membranes. After an incubation of 60 min at 30° C., the samples were filtered through Schleicher & Schuell No. 32 glass fiber filters. The filters were washed three times with cold 50 mM Tris-HCl, pH 7.5, and were counted in 2 mL of Ecoscint scintillation fluid.
smiles,measurement,setting,value
"COC1(c2ccnc(C(N)=O)c2)C2CCCC1CN(C1CCC(F)(F)CC1)C2 [Compound 7, 4-((1R,5S,9r)-3-(4,4-difluorocyclohexyl)-9-methoxy-3-azabicyclo[3.3.1]nonan-9-yl)picolinamide hydrochloride]",pKi,[1],8.30 to 9.00
same,pEC50,[2],< 7.12
"COC1(c2ccnc(C(N)=O)c2)C2CCCC1CN(C[C@H]1C[C@@H]3C[C@@H]3C1)C2 (stereo partly drawn) [Compound 102, 4-((1R,5S,9R)-3-((1R,3r,5S)-bicyclo[3.1.0]hexan-3-ylmethyl)-9-methoxy-3-azabicyclo[3.3.1]nonan-9-yl)picolinamide hydrochloride]",pKi,[1],> 9.00
same,pEC50,[2],7.12 to 8.00
"COC1(c2ccnc(C(N)=O)c2)C2CCCC1CN([C@H]1CC[C@@H]1C)C2 (single isomer, unassigned) [Compound 144, hydrochloride]",pKi,[1],> 9.00
same,pEC50,[2],7.12 to 8.00
"COC1(c2ccc(C(N)=O)s2)C2CCCC1CN(CCN1CCNC1=O)C2 [Compound 95, 5-((1R,5S,9r)-9-methoxy-3-(2-(2-oxoimidazolidin-1-yl)ethyl)-3-azabicyclo[3.3.1]nonan-9-yl)thiophene-2-carboxamide (S)-2-hydroxysuccinate]",pKi,[1],8.30 to 9.00
same,pEC50,[2],< 7.12
"COC1(c2ccnc(C(N)=O)c2)C2CCCC1CN(C1CCC1)C2 [Compound 90, 4-((1R,5S,9r)-3-cyclobutyl-9-methoxy-3-azabicyclo[3.3.1]nonan-9-yl)picolinamide hydrochloride]",pKi,[1],8.30 to 9.00
same,pEC50,[2],7.12 to 8.00
"COC1(c2cc(C(N)=O)cs2)C2CCCC1CN(CC1CC1)C2 [Compound 59, 5-((1R,5S,9r)-3-(cyclopropylmethyl)-9-methoxy-3-azabicyclo[3.3.1]nonan-9-yl)thiophene-3-carboxamide hydrochloride]",pKi,[1],8.30 to 9.00
"COC1(c2cccc(C(N)=O)c2)C2CCCC1CN(Cc1ccccc1)C2 [Compound 21, 3-((1R,5S,9r)-3-benzyl-9-methoxy-3-azabicyclo[3.3.1]nonan-9-yl)benzamide hydrochloride]",pKi,[1],> 9.00
same,pEC50,[2],> 8.00
"COC1(c2ccnc(C(N)=O)c2)C2CCCC1CN(C13CC(c4ccccc4)(C1)C3)C2 [Compound 106, 4-((1R,5S,9r)-9-methoxy-3-(3-phenylbicyclo[1.1.1]pentan-1-yl)-3-azabicyclo[3.3.1]nonan-9-yl)picolinamide hydrochloride]",pKi,[1],> 9.00
same,pEC50,[2],> 8.00
"COC1(c2ccnc(C(N)=O)c2)C2CCCC1CN(CCN1CCOC1=O)C2 [Compound 80, 4-((1R,5S,9r)-9-methoxy-3-(2-(2-oxooxazolidin-3-yl)ethyl)-3-azabicyclo[3.3.1]nonan-9-yl)picolinamide hydrochloride]",pKi,[1],< 8.30
"COC1(c2cccc(C(N)=O)c2)C2CCCC1CN([C@@H]1CCCOC1)C2 (single isomer, unassigned) [Compound 141, hydrochloride]",pKi,[1],> 9.00
same,pEC50,[2],7.12 to 8.00
"COC1(c2ccnc(C(N)=O)c2)C2CCCC1CN(Cc1cccc(=O)[nH]1)C2 [Compound 120, 4-((1R,5S,9r)-34(6-hydroxypyridin-2-yl)methyl)-9-methoxy-3-azabicyclo[3.3.1]nonan-9-yl)picolinamide hydrochloride]",pKi,[1],< 8.30
"COC1(c2ccc(C(N)=O)s2)C2CCCC1CN(CC1CC1)C2 [Compound 36, 5-((1R,5S,9r)-3-(cyclopropylmethyl)-9-methoxy-3-azabicyclo[3.3.1]nonan-9-yl)thiophene-2-carboxamide hydrochloride]",pKi,[1],> 9.00
same,pEC50,[2],7.12 to 8.00
"CCN1CC2CCCC(C1)C2(OC)c1ccnc(C(N)=O)c1 [Compound 66, 4-((1R,5S,9r)-3-ethyl-9-methoxy-3-azabicyclo[3.3.1]nonan-9-yl)picolinamide hydrochloride]",pKi,[1],8.30 to 9.00
same,pEC50,[2],7.12 to 8.00
"COC1(c2cc(O)cc(C(N)=O)c2)C2CCCC1CN(C)C2 [Compound 52, 3-hydroxy-5-((1R,5S,9r)-9-methoxy-3-methyl-3-azabicyclo[3.3.1]nonan-9-yl)benzamide hydrochloride]",pKi,[1],< 8.30
"COC1(c2ccc(C(N)=O)cc2)C2CCCC1CN(CC1CC1)C2 [Compound 31, 4-((1R,5S,9r)-3-(cyclopropylmethyl)-9-methoxy-3-azabicyclo[3.3.1]nonan-9-yl)benzamide hydrochloride]",pKi,[1],< 8.30
"COC1(c2ccnc(C(N)=O)c2)C2CCCC1CN(Cc1cc3ccccc3[nH]1)C2 [Compound 119, 4-((1R,5S,9r)-3-((1H-indol-2-yl)methyl)-9-methoxy-3-azabicyclo[3.3.1]nonan-9-yl)picolinamide (S)-2-hydroxysuccinate]",pEC50,[2],> 8.00
"COC1(c2ccnc(C(N)=O)c2)C2CCCC1CN(C1CN(C(C)=O)C1)C2 [Compound 84, 4-((1R,5S,9r)-3-(1-acetylazetidin-3-yl)-9-methoxy-3-azabicyclo[3.3.1]nonan-9-yl)picolinamide hydrochloride]",pKi,[1],< 8.30
"COC1(c2cccc(C(N)=O)c2)C2CCCC1CN(C(C)C)C2 [Compound 25, 3-((1R,5S,9r)-3-isopropyl-9-methoxy-3-azabicyclo[3.3.1]nonan-9-yl)benzamide hydrochloride]",pKi,[1],> 9.00
"COC1(c2ccnc(C(N)=O)c2)C2CCCC1CN([C@H]1CC[C@H]1c1ccccc1)C2 (stereo partly drawn) [Compound 116, 4-((1R,5S,9s)-9-methoxy-3-((1S,2S)-2-phenylcyclobutyl)-3-azabicyclo[3.3.1]nonan-9-yl)picolinamide (S)-2-hydroxysuccinate]",pKi,[1],< 8.30
"COC1(c2cccc(C(N)=O)n2)C2CCCC1CN(C)C2 [Compound 33, 6-((1R,5S,9r)-9-methoxy-3-methyl-3-azabicyclo[3.3.1]nonan-9-yl)picolinamide hydrochloride]",pKi,[1],< 8.30
"COC1(c2ccnc(C(N)=O)c2)C2CCCC1CN(Cc1cnnn1C)C2 [Compound 125, 4-((1R,5S,9r)-9-methoxy-3-((1-methyl-1H-1,2,3-triazol-5-yl)methyl)-3-azabicyclo[3.3.1]nonan-9-yl)picolinamide hydrochloride]",pKi,[1],< 8.30
"COC1(c2ccnc(C(N)=O)c2)C2CCCC1CN([C@@H]1CC[C@@H]1c1ccccc1)C2 (stereo partly drawn) [Compound 110, 4-((1R,5S,9R)-9-methoxy-3-((1R,2R)-2-phenylcyclobutyl)-3-azabicyclo[3.3.1]nonan-9-yl)picolinamide hydrochloride]",pKi,[1],< 8.30
"COC1(c2cncc(C(N)=O)c2)C2CCCC1CN(CC1CC1)C2 [Compound 28, 5-((1R,5S,9r)-3-(cyclopropylmethyl)-9-methoxy-3-azabicyclo[3.3.1]nonan-9-yl)nicotinamide hydrochloride]",pKi,[1],< 8.30
"COC1(c2cccc(C(N)=O)c2)C2CCCC1CN(CC(F)(F)F)C2 [Compound 32, 3-((1R,5S,9r)-9-methoxy-3-(2,2,2-trifluoroethyl)-3-azabicyclo[3.3.1]nonan-9-yl)benzamide hydrochloride]",pKi,[1],< 8.30
"COC1(c2ccc(F)c(C(N)=O)c2)C2CCCC1CN(C)C2 [Compound 41, 2-fluoro-5-((1R,5S,9r)-9-methoxy-3-methyl-3-azabicyclo[3.3.1]nonan-9-yl)benzamide hydrochloride]",pKi,[1],< 8.30
"COC1(c2ccnc(C(N)=O)c2)C2CCCC1CN(CCS(C)(=O)=O)C2 [Compound 8, 4-((1R,5S,9r)-9-methoxy-3-(2-(methylsufonyl)ethyl)-3-azabicyclo[3.3.1]nonan-9-yl)picolinamide hydrochloride]",pKi,[1],< 8.30
"COC1(c2ccnc(C(N)=O)c2)C2CCCC1CN(CC1(F)CCOCC1)C2 [Compound 15, 4-((1R,5S,9r)-34(4-fluorotetrahydro-2H-pyran-4-yl)methyl)-9-methoxy-3-azabicyclo[3.3.1]nonan-9-yl)picolinamide hydrochloride]",pKi,[1],< 8.30
"COC1(c2cc(C(N)=O)ccn2)C2CCCC1CN(C)C2 [Compound 44, 2-((1R,5S,9r)-9-methoxy-3-methyl-3-azabicyclo[3.3.1]nonan-9-yl)isonicotinamide hydrochloride]",pKi,[1],8.30 to 9.00
"COC1(c2ccnc(C(N)=O)c2)C2CCCC1CN(CC(C)(C)C)C2 [Compound 105, 4-((1R,5S,9r)-9-methoxy-3-neopentyl-3-azabicyclo[3.3.1]nonan-9-yl)picolinamide hydrochloride]",pKi,[1],< 8.30
